Experimental data taken from US7307063B2, “Melanocortin metallopeptides for treatment of sexual dysfunction” (Palatin Technologies, Inc., priority 2001, dated 2007).
Values joined by “and” are separate entries in the source; they are usually repeats but may differ in a detail not shown here. Equal values may be shown once. Non-standard residues stand in square brackets, D forms with d. No end group written: not given here. *: point of attachment. Phenylacetyl(4-Ph) = O=C(Cc1ccc(-c2ccccc2)cc1)*; Desaminotyrosyl = O=C(CCc1ccc(O)cc1)*; dIgl = N[C@@H](C(=O)O)C1Cc2ccccc2C1; Hydrocinnamoyl = O=C(CCc1ccccc1)*; 4‑Amc = not defined here; Ahp = NCCCCCCC(=O)O

Columns and labels:
MC1-R = molecular target: T1, MC1-R (Mus musculus, UniProt Q01727); assay: Competitive binding assay: inhibition of 125I-NDP-α-MSH binding to membranes from B16-F10 mouse melanoma cells; details: Table 6; 1 μM; mean of triplicate
T1 construct: MC1-R membranes were isolated from B16—F10 mouse melanoma cells; endogenous in cells; host or cells: B16-F10 mouse melanoma cells
T1 sequence (Q01727 whole entry): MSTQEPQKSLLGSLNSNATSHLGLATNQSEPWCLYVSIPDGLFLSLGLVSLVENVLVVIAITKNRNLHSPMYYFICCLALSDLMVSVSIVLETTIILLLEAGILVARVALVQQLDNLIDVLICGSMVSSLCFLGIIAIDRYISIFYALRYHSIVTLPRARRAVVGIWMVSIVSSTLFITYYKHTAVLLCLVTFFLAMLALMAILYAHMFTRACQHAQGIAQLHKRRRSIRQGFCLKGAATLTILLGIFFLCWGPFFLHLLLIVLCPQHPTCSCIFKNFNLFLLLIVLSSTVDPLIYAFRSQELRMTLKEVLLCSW
Experimental: (§1) Rhenium-complexed metallopeptides of the formulas given in Table 1 were prepared, with the metallopeptides complexed with rhenium using the rhenium transfer agent ReOCl3(PPh3)2 in the presence of 1,8-Diazabicyclo[5,4,0] undec-7-ene as a base, as disclosed in International Application PCT/US00/16396, filed Jun. 14, 2000, Melanocortin Metallopeptide Constructs, Combinatorial Libraries and Applications, incorporated by reference herein. Affinities of compounds were measured using membranes from HEK-293 cells containing cloned human melanocortin receptor subtypes 3, 4 and 5. MC1-R membranes were isolated from B16—F10 mouse melanoma cells. The assay tube also contained a chosen concentration of the test peptide of this invention, complexed to a rhenium metal ion as indicated, for determining its efficacy in inhibiting the binding of ^125I-NDP-α-MSH to its receptor. Non-specific binding was measured by complete inhibition of binding of ^125I-NDP-α-MSH in the assay with the presence of 1 μM α-MSH. 100% specific binding was defined as the difference in radioactivity (cpm) bound to cell membranes in the absence and presence of 1 μM α-MSH. The cpm obtained in presence of test compounds were normalized with respect to 100% specific binding to determine the percent inhibition of ^125I-NDP-α-MSH binding.
(§2) Peptide sequences set forth in Table 6 were prepared using conventional synthetic means. The resulting sequences were rhenium-complexed to form metallopeptides, with the metallopeptides complexed with rhenium using the rhenium transfer agent ReOCl3(PPh3)2 in the presence of 1,8-Diazabicyclo[5,4,0] undec-7-ene as a base. Percent inhibition was determined as in Example 1 using the Re-complexed metallopeptides, using the same methods as described therein. All measures are means of triplicate determinations.

MC4-R = molecular target: T2, MC4-R (Homo sapiens, UniProt P32245); assay: Competitive binding assay: inhibition of 125I-NDP-α-MSH binding to HEK-293 membranes with cloned human receptor subtype 4; details: Table 6; 1 μM; mean of triplicate
T2 construct: expressed in transfected cells; host or cells: HEK-293
T2 sequence (P32245 whole entry): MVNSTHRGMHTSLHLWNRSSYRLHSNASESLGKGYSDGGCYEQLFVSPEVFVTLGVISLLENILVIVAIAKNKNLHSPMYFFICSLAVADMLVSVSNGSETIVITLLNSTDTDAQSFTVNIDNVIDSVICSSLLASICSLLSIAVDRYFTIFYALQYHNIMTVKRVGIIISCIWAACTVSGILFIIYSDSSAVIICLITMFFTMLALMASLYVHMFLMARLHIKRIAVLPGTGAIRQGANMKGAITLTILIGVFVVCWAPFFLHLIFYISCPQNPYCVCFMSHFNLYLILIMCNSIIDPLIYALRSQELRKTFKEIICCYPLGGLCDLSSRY
Experimental: as §1, §2

hMC5-R = molecular target: T3, hMC5-R (Homo sapiens, UniProt P33032); assay: Competitive binding assay: inhibition of 125I-NDP-α-MSH binding to HEK-293 membranes with cloned human receptor subtype 5; details: Table 6; 1 μM; mean of triplicate
T3 construct: expressed in transfected cells; host or cells: HEK-293
T3 sequence (P33032 whole entry): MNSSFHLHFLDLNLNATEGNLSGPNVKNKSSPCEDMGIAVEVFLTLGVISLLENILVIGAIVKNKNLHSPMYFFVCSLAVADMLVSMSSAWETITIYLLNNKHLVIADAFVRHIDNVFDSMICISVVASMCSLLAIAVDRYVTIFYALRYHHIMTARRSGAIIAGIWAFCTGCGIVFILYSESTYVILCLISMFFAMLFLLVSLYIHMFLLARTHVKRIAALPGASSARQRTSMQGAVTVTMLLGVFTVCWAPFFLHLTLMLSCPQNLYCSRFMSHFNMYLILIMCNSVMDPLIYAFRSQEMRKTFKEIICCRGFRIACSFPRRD
Experimental: as §1, §2

hMC2-R = molecular target: T4, hMC2-R (Homo sapiens, UniProt P41968); assay: Competitive binding assay of additional compounds, Table 6 hMC2-R; details: 1 μM, mean of triplicate
T4 construct: expressed in transfected cells; host or cells: HEK-293
T4 sequence (P41968 whole entry): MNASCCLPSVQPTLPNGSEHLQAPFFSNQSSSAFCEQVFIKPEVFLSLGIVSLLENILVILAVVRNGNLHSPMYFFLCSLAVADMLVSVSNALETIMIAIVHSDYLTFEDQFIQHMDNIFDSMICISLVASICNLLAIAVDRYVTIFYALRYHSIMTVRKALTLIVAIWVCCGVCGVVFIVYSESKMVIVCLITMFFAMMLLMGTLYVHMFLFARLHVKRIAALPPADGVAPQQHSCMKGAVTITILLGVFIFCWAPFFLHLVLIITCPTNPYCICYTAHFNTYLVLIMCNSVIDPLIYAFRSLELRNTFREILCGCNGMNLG
Experimental: [The source words this procedure for another target and reports this target under the same test.] as §1, §2

| Substance | % Inhibition of Binding MC1-R (MC1-R) | % Inhibition of Binding hMC4-R (MC4-R) | % Inhibition of Binding hMC5-R (hMC5-R) [%] | % Inhibition of Binding hMC2-R (hMC2-R) [%] |
| --- | --- | --- | --- | --- |
| 3′-(4′-Hydroxyphenyl)propionyl-HiS-D-Phe-Arg-Cys-Trp-NH2 (Desaminotyrosyl-H[dF]RCW-NH2; not fully specified; printed as 3′-(4′-Hydroxyphenyl)propionyl-HiS-D-Phe-Arg-Cys-Trp-NH2) | 76% | 0% | 21 | 0 |
| 3′-Br Phenyl acetyl-Arg-Arg-D-Bip-Cys-Trp-NH2 | 91% | 77% | 99 | 83 |
| 3′-Br Phenyl acetyl-Arg-Arg-D-Phe(3′-Cl)-Cys-Nal 2′-NH2 | 65% | 75% | 89 | 68 |
| 3′-Br Phenyl acetyl-Arg-Arg-D-Phe(4′-Cl)-Cys-Bip-NH2 | 69% | 78% | 86 | 60 |
| 3′-Br Phenyl acetyl-Arg-Arg-D-Phe(4′-Me)-Cys-Trp-NH2 | 93% and 85% | 98% and 82% | 94 | 86 |
| 3′-Br Phenyl acetyl-Lys-Ala-D-Phe(2′-Cl)-Cys-Trp-NH2 | 9% | 34% | 44 | 19 |
| 3′-Br-Phenylacetyl-His-D-Phe(4′-Cl)-Trp-Cys-NH2 | 41% | 3% | 40 | 15 |
| 3′-Br-Phenylacetyl-His-Gly-D-Phe(4′-Cl)Trp-Cys-NH2 | 33% | 2% | 16 | 14 |
| 3′-Bromo phenyl acetyl-Arg-Ala-D-Phe(4′-Cl)-Cys-NH2 | 90% | 59% | 15 | 47 |
| 3′-Bromo phenyl acetyl-Arg-Ala-D-Phe(4′-Cl)-Cys-Trp-NH2 | 8% | 80% | 86 | 35 |
| 3′-Bromo phenyl acetyl-Arg-Thr(Bzl)-D-Phe(4′-Cl)-Cys-NH2 | 16% | 6% | 21 | 5 |
| 3′-Bromo phenyl acetyl-Arg-Thr-D-Phe(4′-Cl)-Cys-NH2 | 8% | 1% | 2 | 6 |
| 3′-Bromo phenyl acetyl-Arg-Trp-D-Phe(4′-Cl)-Cys-NH2 | 5% | 17% | 21 | 0 |
| 3′-Phenylpropionyl-D-Phe-Arg-Cys-Trp-NH2 (Hydrocinnamoyl-[dF]RCW-NH2; not fully specified; printed as 3′-Phenylpropionyl-D-Phe-Arg-Cys-Trp-NH2) | 3% | 0% | 44 | 0 |
| 3′-Phenylpropionyl-His-D-Phe-Arg-Cys-Trp-NH2 (Hydrocinnamoyl-H[dF]RCW-NH2; not fully specified; printed as 3′-Phenylpropionyl-His-D-Phe-Arg-Cys-Trp-NH2) | 75% | 16% | 50 | 2 |
| 4′-Biphenylacetyl-D-Phe-Arg-Cys-Trp-NH2 ({Phenylacetyl(4-Ph)}-[dF]RCW-NH2; not fully specified; printed as 4′-Biphenylacetyl-D-Phe-Arg-Cys-Trp-NH2) | 1% | 0% | 50 | 0 |
| 7-amino-Heptanoyl-D-Igl-D-Phe-Arg-Trp-Cys-NH2 ([Ahp][dIgl][dF]RWC-NH2; not fully specified; printed as 7-amino-Heptanoyl-D-Igl-D-Phe-Arg-Trp-Cys-NH2) | 47% | 5% | 35 | 0 |
| 7-amino-haptanoyl-Ser(Bzl)-D-Nal 2′-Arg-Cys-NH2 | 3% | 6% | 34 | 0 |
| Ac-Ala-Ala-Ala-D-Phe-Arg-Cys-Trp-NH2 (Ac-AAA[dF]RCW-NH2; not fully specified; printed as Ac-Ala-Ala-Ala-D-Phe-Arg-Cys-Trp-NH2) | 5% | 3% | 0 | 0 |
| Ac-Ala-Ala-His-D-Phe-Arg-Cys-Trp-NH2 ({Ac-Ala-Ala-H2N}-[dF]RCW-NH2; not fully specified; printed as Ac-Ala-Ala-His-D-Phe-Arg-Cys-Trp-NH2) | 76% | 4% | 17 | 0 |

Next, values leading:

| % Inhibition of Binding MC1-R (MC1-R) | % Inhibition of Binding hMC4-R (MC4-R) | % Inhibition of Binding hMC5-R (hMC5-R) [%] | % Inhibition of Binding hMC2-R (hMC2-R) [%] | Substance |
| --- | --- | --- | --- | --- |
| 7% | 0% | 14 | 0 | 3′-(4′-Hydroxyphenyl)propionyl-D-Phe-Arg-Cys-Trp-NH2 (Desaminotyrosyl-[dF]RCW-NH2; not fully specified; printed as 3′-(4′-Hydroxyphenyl)propionyl-D-Phe-Arg-Cys-Trp-NH2) |
| 56% | 68% | 92 | 46 | 3′-Br Phenyl acetyl-Arg-Arg-D-Bip-Cys-Bip-NH2 |
| 61% | 62% | 83 | 49 | 3′-Br Phenyl acetyl-Arg-Arg-D-Phe(3′-Cl)-Cys-Nal 1′-NH2 |
| 72% | 89% | 99 | 94 | 3′-Br Phenyl acetyl-Arg-Arg-D-Phe(4′-CF3)-Cys-Trp-NH2 |
| 90% | 84% | 89 | 85 | 3′-Br Phenyl acetyl-Arg-Arg-D-Phe(4′-Cl)-Cys-Nal 1′-NH2 |
| 94% and 84% | 99% and 93% | 88 | 87 | 3′-Br Phenyl acetyl-Arg-Arg-D-Phe(4′-Me)-Cys-NH2 |
| 4% and 10% | 96% and 74% | 83 | 77 | 3′-Br Phenyl acetyl-Lys-Ala-D-Phe(4′-CF3)-Cys-Trp-NH2 |
| 47% | 15% | 0 | 11 | 3′-Bromo phenyl acetyl-Arg-His-D-Phe(4′-Cl)-Cys-NH2 |
| 4% | 38% | 60 | 13 | 3′-Bromo phenyl acetyl-Lys-Ala-D-Phe(3′-Cl)-Cys-Trp-NH2 |
| 0% | 73% | 80 | 19 | 3′-Bromo phenyl acetyl-Lys-Ala-D-Phe(4′-Me)-Cys-Trp-NH2 |
| 51% | 6% | 6 | 0 | 4-Amc-D-Phe-Arg-Trp-Cys-NH2 ({4‑Amc}-[dF]RWC-NH2; not fully specified; printed as 4-Amc-D-Phe-Arg-Trp-Cys-NH2; reading uncertain) |
| 8% | 10% | 32 | 0 | 7-amino-haptanoyl-D-Igl-D-Phe-Arg-Cys-NH2 |
